Legend:
Test in all cases: Test B pre-/postemergence plant response
Format in all cases: in vivo
[1] = tested on: green foxtail (Setaria viridis)
Method in brief: (§1)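 Seeds sown in loam–sand blend were treated preemergence, and plants at 2–18 cm (1- to 4-leaf stage) in peat-based medium were treated postemergence; compounds were formulated in non-phytotoxic solvent with surfactant. After 13–15 days in greenhouse, response was visually rated against controls, 0 (no effect) to 100 (complete control).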

[2] = tested on: downy bromegrass (Bromus tectorum)
Method in brief: as §1

[3] = tested on: yellow nutsedge (Cyperus esculentus)
Method in brief: as §1

[4] = tested on: morningglory (Ipomoea coccinea)
Method in brief: as §1

corn (Zea mays) = tested on: corn (Zea mays)
Method in brief: as §1

[5] = tested on: ragweed (common ragweed, Ambrosia elatior)
Method in brief: as §1

[6] = tested on: Italian ryegrass (Lolium multiflorum)
Method in brief: as §1

[7] = tested on: goosegrass (Eleusine indica)
Method in brief: as §1

[8] = tested on: woolly cupgrass (Eriochloa villosa)
Method in brief: as §1

[9] = tested on: bermudagrass (Cynodon dactylon)
Method in brief: as §1

[10] = tested on: giant foxtail (Setaria faberii)
Method in brief: as §1

[11] = tested on: large crabgrass (Digitaria sanguinalis)
Method in brief: as §1

[12] = tested on: johnsongrass (Sorghum halepense)
Method in brief: as §1

[13] = 250 g ai/ha, Preemergence, 0 to 100 scale
[14] = Postemergence, 31 g ai/ha, scale 0 to 100 (0 no effect, 100 complete control)
[15] = Postemergence, 62 g ai/ha, scale 0 (no effect) to 100 (complete control), 13 to 15 days
[16] = Postemergence, 125 g ai/ha, visual rating after 13 to 15 days, scale 0 (no effect) to 100 (complete control)
[17] = Postemergence, 250 g ai/ha, scale 0 to 100
[18] = Preemergence, 31 g ai/ha, scale 0 to 100 (0 no effect, 100 complete control)
[19] = Preemergence, 62 g ai/ha, scale 0 to 100 (0 no effect, 100 complete control)
[20] = Preemergence, 125 g ai/ha, 0 to 100 scale

O=C1CCCC(O)=C1C(=O)c1cnc(-c2ccccc2)n(-c2ccccc2F)c1=O [Compound 26]
Plant response rating, Foxtail, Green [1, 13]: 70
Plant response rating, Foxtail, Green [1, 14]: 35
Plant response rating, Foxtail, Green [1, 15]: 40
Plant response rating, Foxtail, Green [1, 16]: 85
Foxtail, Green plant response rating [1, 17]: 95
Plant response rating, Foxtail, Green [1, 18]: 0
Plant response rating, Foxtail, Green [1, 19]: 0
Foxtail, Green plant response rating [1, 20]: 30
Plant response rating, Bromegrass, Downy [2, 13]: 10
Plant response rating, Bromegrass, Downy [2, 14]: 10
Plant response rating, Bromegrass, Downy [2, 15]: 15
Plant response rating, Bromegrass, Downy [2, 16]: 20
Bromegrass, Downy plant response rating [2, 17]: 40
Plant response rating, Bromegrass, Downy [2, 18]: 0
Plant response rating, Bromegrass, Downy [2, 19]: 0
Bromegrass, Downy plant response rating [2, 20]: 0
Plant response rating, Nutsedge, Yellow [3, 13]: 85
Plant response rating, Nutsedge, Yellow [3, 14]: 30
Plant response rating, Nutsedge, Yellow [3, 15]: 30
Plant response rating, Nutsedge, Yellow [3, 16]: 35
Nutsedge, Yellow plant response rating [3, 17]: 35
Plant response rating, Nutsedge, Yellow [3, 18]: 10
Plant response rating, Nutsedge, Yellow [3, 19]: 50
Nutsedge, Yellow plant response rating [3, 20]: 50
Plant response rating, Morningglory [4, 13]: 100
Plant response rating, Morningglory [4, 14]: 50
Plant response rating, Morningglory [4, 15]: 50
Plant response rating, Morningglory [4, 16]: 75
Morningglory plant response rating [4, 17]: 75
Plant response rating, Morningglory [4, 18]: 100
Plant response rating, Morningglory [4, 19]: 100
Morningglory plant response rating [4, 20]: 100
Plant response rating, Corn (corn (Zea mays); [13]): 0
Plant response rating, Corn (corn (Zea mays); [14]): 35
Plant response rating, Corn (corn (Zea mays); [15]): 35
Plant response rating, Corn (corn (Zea mays); [16]): 40
Corn plant response rating (corn (Zea mays); [17]): 50
Plant response rating, Corn (corn (Zea mays); [18]): 0
Plant response rating, Corn (corn (Zea mays); [19]): 0
Corn plant response rating (corn (Zea mays); [20]): 0
Plant response rating, Ragweed [5, 13]: 100
Plant response rating, Ragweed [5, 14]: 70
Plant response rating, Ragweed [5, 15]: 85
Plant response rating, Ragweed [5, 16]: 98
Ragweed plant response rating [5, 17]: 100
Plant response rating, Ragweed [5, 18]: 65
Plant response rating, Ragweed [5, 19]: 85
Ragweed plant response rating [5, 20]: 95
Plant response rating, Ryegrass, Italian [6, 13]: 0
Plant response rating, Ryegrass, Italian [6, 14]: 0
Plant response rating, Ryegrass, Italian [6, 15]: 0
Plant response rating, Ryegrass, Italian [6, 16]: 10
Ryegrass, Italian plant response rating [6, 17]: 45
Plant response rating, Ryegrass, Italian [6, 18]: 0
Plant response rating, Ryegrass, Italian [6, 19]: 0
Ryegrass, Italian plant response rating [6, 20]: 0
Plant response rating, Goosegrass [7, 13]: 100
Plant response rating, Goosegrass [7, 14]: 60
Plant response rating, Goosegrass [7, 15]: 90
Plant response rating, Goosegrass [7, 16]: 95
Goosegrass plant response rating [7, 17]: 95
Plant response rating, Goosegrass [7, 18]: 5
Goosegrass plant response rating [7, 20]: 95
Plant response rating, Cupgrass, Woolly [8, 13]: 85
Plant response rating, Cupgrass, Woolly [8, 14]: 40
Plant response rating, Cupgrass, Woolly [8, 15]: 40
Plant response rating, Cupgrass, Woolly [8, 16]: 85
Cupgrass, Woolly plant response rating [8, 17]: 85
Plant response rating, Cupgrass, Woolly [8, 18]: 0
Plant response rating, Cupgrass, Woolly [8, 19]: 5
Cupgrass, Woolly plant response rating [8, 20]: 50
Plant response rating, Bermudagrass [9, 13]: 100
Plant response rating, Bermudagrass [9, 14]: 40
Plant response rating, Bermudagrass [9, 15]: 50
Plant response rating, Bermudagrass ([9]; Postemergence, 125 g ai/ha, scale 0 to 100 (0 no effect, 100 complete control), 13 to 15 days): 60
Bermudagrass plant response rating [9, 17]: 75
Plant response rating, Bermudagrass [9, 18]: 5
Plant response rating, Bermudagrass [9, 19]: 70
Bermudagrass plant response rating [9, 20]: 98
Plant response rating, Foxtail, Giant [10, 13]: 90
Plant response rating, Foxtail, Giant [10, 14]: 60
Plant response rating, Foxtail, Giant [10, 15]: 60
Plant response rating, Foxtail, Giant [10, 16]: 70
Foxtail, Giant plant response rating [10, 17]: 95
Plant response rating, Foxtail, Giant [10, 18]: 5
Plant response rating, Foxtail, Giant [10, 19]: 10
Foxtail, Giant plant response rating [10, 20]: 45
Plant response rating, Crabgrass, Large [11, 13]: 100
Plant response rating, Crabgrass, Large [11, 14]: 40
Plant response rating, Crabgrass, Large [11, 15]: 50
Plant response rating, Crabgrass, Large [11, 16]: 50
Crabgrass, Large plant response rating [11, 17]: 80
Plant response rating, Crabgrass, Large [11, 18]: 0
Plant response rating, Crabgrass, Large [11, 19]: 40
Crabgrass, Large plant response rating [11, 20]: 100
Plant response rating, Johnsongrass [12, 13]: 90
Plant response rating, Johnsongrass [12, 14]: 35
Plant response rating, Johnsongrass [12, 15]: 50
Plant response rating, Johnsongrass [12, 16]: 50
Johnsongrass plant response rating [12, 17]: 70
Plant response rating, Johnsongrass [12, 18]: 0
Plant response rating, Johnsongrass [12, 19]: 10
Johnsongrass plant response rating [12, 20]: 60

Source: patent US8952024B2, “Herbicidal pyrimidone derivatives” (E I du Pont de Nemours and Company, priority 2009, dated 2015)
